Assay results from paper PMC5218480 (PLoS ONE, 2017).

System: MV-4-11 cells
Test: Gene expression microarray analysis (Affymetrix PrimeView) and GSEA
Format: cell-based, human
Parameters: RFU PODN (11730768_x_at) / Fold change /veh PODN (11730768_x_at) / RFU LINC00158 (11744669_a_at) / Fold change /veh LINC00158 (11744669_a_at) / RFU DUSP10 (11751237_a_at) / Fold change /veh DUSP10 (11751237_a_at) / RFU ID3 (11757404_x_at) / Fold change /veh ID3 (11757404_x_at) / RFU PLEKHG5 (11737974_s_at) / Fold change /veh PLEKHG5 (11737974_s_at) / RFU LRRC4B (11730491_at) / Fold change /veh LRRC4B (11730491_at) / RFU GIMAP4 (11747438_a_at) / Fold change /veh GIMAP4 (11747438_a_at) / RFU KRT8 (11758183_x_at) / Fold change /veh KRT8 (11758183_x_at) / RFU CNN1 (11734310_a_at) / Fold change /veh CNN1 (11734310_a_at) / RFU VPS37D (11726825_at) / Fold change /veh VPS37D (11726825_at) / RFU C10orf10 (11716522_x_at) / Fold change /veh C10orf10 (11716522_x_at) / RFU KIR2DL2 /// KIR2DL4 /// KIR2DL5A /// KIR2DL5B /// KIR2DS1 /// KIR2DS2 /// KIR2DS3 /// KIR2DS4 /// KIR3DL3 /// KIR3DL3 /// KIR3DS1 (11738374_at) / Fold change /veh KIR2DL2 /// KIR2DL4 /// KIR2DL5A /// KIR2DL5B /// KIR2DS1 /// KIR2DS2 /// KIR2DS3 /// KIR2DS4 /// KIR3DL3 /// KIR3DL3 /// KIR3DS1 (11738374_at) / RFU C1QL1 (11718748_at) / Fold change /veh C1QL1 (11718748_at) / RFU TMPRSS4 (11747572_a_at) / Fold change /veh TMPRSS4 (11747572_a_at) / RFU HAMP (11756126_x_at) / Fold change /veh HAMP (11756126_x_at) / RFU RNFT2 (11725882_a_at) / Fold change /veh RNFT2 (11725882_a_at) / RFU NR4A2 (11747474_a_at) / Fold change /veh NR4A2 (11747474_a_at) / RFU ABCC12 (11746883_a_at) / Fold change /veh ABCC12 (11746883_a_at) / RFU TMEM136 (11760407_x_at) / Fold change /veh TMEM136 (11760407_x_at) / RFU CLDN22 /// WWC2 (11732394_at) / Fold change /veh CLDN22 /// WWC2 (11732394_at) / RFU HLA-DPB1 (11760878_x_at) / Fold change /veh HLA-DPB1 (11760878_x_at) / RFU SPINT1 (11716480_a_at) / Fold change /veh SPINT1 (11716480_a_at) / RFU GAP43 (11754022_s_at) / Fold change /veh GAP43 (11754022_s_at) / RFU A4GNT (11735810_at) / Fold change /veh A4GNT (11735810_at) / RFU PRB3 (11715151_x_at) / Fold change /veh PRB3 (11715151_x_at) / RFU TUBB4B (11761932_at) / Fold change /veh TUBB4B (11761932_at) / RFU CAPN14 (11732068_a_at) / Fold change /veh CAPN14 (11732068_a_at) / RFU TMCC2 (11721928_a_at) / Fold change /veh TMCC2 (11721928_a_at) / RFU IRGQ (11745062_a_at) / Fold change /veh IRGQ (11745062_a_at) / RFU FAM174B (11720279_a_at) / Fold change /veh FAM174B (11720279_a_at) / RFU TMPRSS4 (11748680_a_at) / Fold change /veh TMPRSS4 (11748680_a_at) / RFU FAM212B (11763350_a_at) / Fold change /veh FAM212B (11763350_a_at) / RFU PLEKHG5 (11743358_a_at) / Fold change /veh PLEKHG5 (11743358_a_at) / RFU ZSCAN30 (11745921_a_at) / Fold change /veh ZSCAN30 (11745921_a_at) / RFU CMKLR1 (11741424_a_at) / Fold change /veh CMKLR1 (11741424_a_at) / RFU LOC101060620 /// MAPK8IP1 (11723275_at) / Fold change /veh LOC101060620 /// MAPK8IP1 (11723275_at) / RFU SPTSSB (11747773_x_at) / Fold change /veh SPTSSB (11747773_x_at) / RFU PRSS12 (11739890_at) / Fold change /veh PRSS12 (11739890_at) / RFU BIN1 (11741810_x_at) / Fold change /veh BIN1 (11741810_x_at) / RFU WNT11 (11732464_a_at) / Fold change /veh WNT11 (11732464_a_at) / RFU C10orf10 (11716521_a_at) / Fold change /veh C10orf10 (11716521_a_at) / RFU C5orf56 (11738089_at) / Fold change /veh C5orf56 (11738089_at) / RFU CYB561 (11721691_x_at) / Fold change /veh CYB561 (11721691_x_at) / RFU ANKRD19P (11752326_a_at) / Fold change /veh ANKRD19P (11752326_a_at) / RFU OR2T12 /// OR2T33 /// OR2T8 (11738714_s_at) / Fold change /veh OR2T12 /// OR2T33 /// OR2T8 (11738714_s_at) / RFU VCAN (11748164_a_at) / Fold change /veh VCAN (11748164_a_at) / RFU JSRP1 (11732532_at) / Fold change /veh JSRP1 (11732532_at) / RFU KRTAP10-11 (11738290_x_at) / Fold change /veh KRTAP10-11 (11738290_x_at) / RFU MYO3A (11730013_a_at) / Fold change /veh MYO3A (11730013_a_at) / RFU EBF3 (11725865_a_at) / Fold change /veh EBF3 (11725865_a_at) / RFU CAMK2N1 (11719241_x_at) / Fold change /veh CAMK2N1 (11719241_x_at) / RFU C5orf56 (11738088_a_at) / Fold change /veh C5orf56 (11738088_a_at) / RFU OLFML3 (11715873_a_at) / Fold change /veh OLFML3 (11715873_a_at) / RFU LOC100653217 /// NTM (11731650_a_at) / Fold change /veh LOC100653217 /// NTM (11731650_a_at) / RFU MAPK11 (11762145_a_at) / Fold change /veh MAPK11 (11762145_a_at) / RFU FIZ1 (11724087_x_at) / Fold change /veh FIZ1 (11724087_x_at) / RFU OASL (11726364_x_at) / Fold change /veh OASL (11726364_x_at) / RFU SOX15 (11748057_x_at) / Fold change /veh SOX15 (11748057_x_at) / RFU CD79A (11719716_a_at) / Fold change /veh CD79A (11719716_a_at) / RFU HIST1H1D (11736915_at) / Fold change /veh HIST1H1D (11736915_at) / RFU CASKIN2 (11723855_a_at) / Fold change /veh CASKIN2 (11723855_a_at) / RFU LOC730098 (11760151_x_at) / Fold change /veh LOC730098 (11760151_x_at) / RFU OR4N2 (11742367_at) / Fold change /veh OR4N2 (11742367_at) / RFU PRRT2 (11749266_a_at) / Fold change /veh PRRT2 (11749266_a_at) / RFU SNX32 (11753110_a_at) / Fold change /veh SNX32 (11753110_a_at) / RFU CDHR5 (11726645_a_at) / Fold change /veh CDHR5 (11726645_a_at) / RFU RCAN1 (11760418_a_at) / Fold change /veh RCAN1 (11760418_a_at) / RFU FAM167A (11723789_a_at) / Fold change /veh FAM167A (11723789_a_at) / RFU FAM26E (11764081_at) / Fold change /veh FAM26E (11764081_at) / RFU ISYNA1 (11749810_s_at) / Fold change /veh ISYNA1 (11749810_s_at) / RFU ACY1 (11761880_at) / Fold change /veh ACY1 (11761880_at) / RFU 11764098_at / Fold change /veh 11764098_at / RFU SAMD14 (11745864_x_at) / Fold change /veh SAMD14 (11745864_x_at) / RFU NPB (11741838_a_at) / Fold change /veh NPB (11741838_a_at) / RFU TMPRSS6 (11731388_a_at) / Fold change /veh TMPRSS6 (11731388_a_at) / RFU KRTAP10-2 (11738614_at) / Fold change /veh KRTAP10-2 (11738614_at) / RFU ARHGAP8 /// PRR5-ARHGAP8 (11727945_x_at) / Fold change /veh ARHGAP8 /// PRR5-ARHGAP8 (11727945_x_at) / RFU KRTAP5-7 /// NADSYN1 (11734609_at) / Fold change /veh KRTAP5-7 /// NADSYN1 (11734609_at) / RFU RASL12 (11751679_a_at) / Fold change /veh RASL12 (11751679_a_at) / RFU CDKN2B (11736163_a_at) / Fold change /veh CDKN2B (11736163_a_at) / RFU PRF1 (11729649_at) / Fold change /veh PRF1 (11729649_at) / RFU, ZNF638 /// ZNF638-IT1 / Fold change vs veh, ZNF638 /// ZNF638-IT1 / RFU, PANK3 / Fold change vs veh, PANK3 / RFU, SH3YL1 / Fold change vs veh, SH3YL1 / RFU, ZEB2 / Fold change vs veh, ZEB2 / RFU, NRIP1 / Fold change vs veh, NRIP1 / RFU, PTTG1IP / Fold change vs veh, PTTG1IP / RFU, CAPN2 / Fold change vs veh, CAPN2 / RFU, MED14 / Fold change vs veh, MED14 / RFU, SNORA58 / Fold change vs veh, SNORA58 / RFU, C1orf63 / Fold change vs veh, C1orf63 / RFU, LRRFIP1 / Fold change vs veh, LRRFIP1 / RFU, NDUFAF7 / Fold change vs veh, NDUFAF7 / RFU, SLC12A2 / Fold change vs veh, SLC12A2 / RFU, IBTK / Fold change vs veh, IBTK / RFU, ESF1 / Fold change vs veh, ESF1 / Fold change vs veh, TMEM50B / RFU, TAOK1 / Fold change vs veh, TAOK1 / RFU, ACBD3 / Fold change vs veh, ACBD3 / RFU, TMA16 / Fold change vs veh, TMA16 / RFU, RWDD3 / Fold change vs veh, RWDD3 / RFU, BCAT1 / Fold change vs veh, BCAT1 / RFU, EDEM3 / Fold change vs veh, EDEM3 / RFU, TMEM33 / Fold change vs veh, TMEM33 / RFU, WDR75 / Fold change vs veh, WDR75 / RFU, AHCTF1 / Fold change vs veh, AHCTF1 / RFU, TFRC / Fold change vs veh, TFRC / RFU, ZDHHC17 / Fold change vs veh, ZDHHC17 / RFU, NOM1 / Fold change vs veh, NOM1 / RFU, ARL8B / Fold change vs veh, ARL8B / RFU, ZBTB11 / Fold change vs veh, ZBTB11 / RFU, TAMM41 / Fold change vs veh, TAMM41 / RFU, KIAA1704 /// LOC100996395 / Fold change vs veh, KIAA1704 /// LOC100996395 / RFU, ING1 / Fold change vs veh, ING1 / RFU, TRMT61B / Fold change vs veh, TRMT61B / RFU, FUBP3 / Fold change vs veh, FUBP3 / RFU, TP53 / Fold change vs veh, TP53 / RFU, TNKS2 / Fold change vs veh, TNKS2 / RFU, ZFP14 / Fold change vs veh, ZFP14 / RFU, ACTR2 / Fold change vs veh, ACTR2 / RFU, PPP3R1 / Fold change vs veh, PPP3R1 / RFU, PIK3R1 / Fold change vs veh, PIK3R1 / RFU, HNRNPA1 / Fold change vs veh, HNRNPA1 / RFU, RNF170 / Fold change vs veh, RNF170 / RFU, ZNF28 / Fold change vs veh, ZNF28 / RFU, RNGTT / Fold change vs veh, RNGTT / RFU, OGT / Fold change vs veh, OGT / RFU, BRD1 / Fold change vs veh, BRD1 / RFU, MARS / Fold change vs veh, MARS / RFU, ZNF655 / Fold change vs veh, ZNF655 / RFU, FAHD1 / Fold change vs veh, FAHD1 / RFU, BDP1 / Fold change vs veh, BDP1 / RFU, LRRCC1 / Fold change vs veh, LRRCC1 / RFU, ARID1A / Fold change vs veh, ARID1A / RFU, ZNF146 / Fold change vs veh, ZNF146 / RFU, ZNF330 / Fold change vs veh, ZNF330 / RFU, GPN3 / Fold change vs veh, GPN3 / RFU, C9orf123 / Fold change vs veh, C9orf123 / RFU, N4BP2L2 / Fold change vs veh, N4BP2L2 / RFU, ARFIP1 / Fold change vs veh, ARFIP1 / RFU, FAM179B / Fold change vs veh, FAM179B / RFU, BCL10 / Fold change vs veh, BCL10 / RFU, UHRF1BP1L / Fold change vs veh, UHRF1BP1L / RFU, BET1 / Fold change vs veh, BET1 / RFU, CNOT2 / Fold change vs veh, CNOT2 / RFU, ZNF268 / Fold change vs veh, ZNF268 / Fold change vs veh, ZNF507 / RFU, DGCR2 / Fold change vs veh, DGCR2 / RFU, WDSUB1 / Fold change vs veh, WDSUB1 / Fold change vs veh, HSP90B1 /// MIR3652 / RFU, ADSS / Fold change vs veh, ADSS / RFU, GK / Fold change vs veh, GK / RFU, ZNF148 / Fold change vs veh, ZNF148 / RFU, TAF9 / Fold change vs veh, TAF9 / RFU, SLC1A5 / Fold change vs veh, SLC1A5 / RFU, SLMO2 / Fold change vs veh, SLMO2 / RFU, ABCC4 / Fold change vs veh, ABCC4 / RFU, LOC101060439 /// RAP1B / Fold change vs veh, LOC101060439 /// RAP1B / RFU, RFX7 / Fold change vs veh, RFX7 / RFU, GTPBP10 / Fold change vs veh, GTPBP10 / RFU, CNEP1R1 / Fold change vs veh, CNEP1R1 / RFU, BIVM-ERCC5 /// ERCC5 / Fold change vs veh, BIVM-ERCC5 /// ERCC5 / RFU, ILF3 / Fold change vs veh, ILF3 / RFU 11762660_at / Fold change /veh 11762660_at / RFU VCAN (11757783_s_at) / Fold change /veh VCAN (11757783_s_at) / RFU DDX43 (11728927_at) / Fold change /veh DDX43 (11728927_at) / RFU KRT8 (11758188_x_at) / Fold change /veh KRT8 (11758188_x_at) / RFU NKD1 (11759106_at) / Fold change /veh NKD1 (11759106_at) / RFU SRD5A1 (11742802_a_at) / Fold change /veh SRD5A1 (11742802_a_at) / RFU TPSAB1 /// TPSB2 (11721975_s_at) / Fold change /veh TPSAB1 /// TPSB2 (11721975_s_at) / RFU GSTM3 (11746129_a_at) / Fold change /veh GSTM3 (11746129_a_at) / RFU IL23R (11737362_x_at) / Fold change /veh IL23R (11737362_x_at) / RFU TMEM51 (11727254_a_at) / Fold change /veh TMEM51 (11727254_a_at) / RFU PIWIL2 (11732686_x_at) / Fold change /veh PIWIL2 (11732686_x_at) / RFU ORM1 (11744905_x_at) / Fold change /veh ORM1 (11744905_x_at) / RFU CCDC152 (11743942_at) / Fold change /veh CCDC152 (11743942_at) / RFU ECM1 (11717891_a_at) / Fold change /veh ECM1 (11717891_a_at) / RFU IL23R (11748794_a_at) / Fold change /veh IL23R (11748794_a_at) / RFU TNFAIP8L3 (11732012_x_at) / Fold change /veh TNFAIP8L3 (11732012_x_at) / RFU MBOAT4 (11741988_at) / Fold change /veh MBOAT4 (11741988_at) / RFU 11764193_at / Fold change /veh 11764193_at / RFU TMEM53 (11763286_at) / Fold change /veh TMEM53 (11763286_at) / RFU MAGEB2 (11727129_at) / Fold change /veh MAGEB2 (11727129_at) / RFU TMEM200A (11744735_a_at) / Fold change /veh TMEM200A (11744735_a_at) / RFU CCDC152 (11751479_a_at) / Fold change /veh CCDC152 (11751479_a_at) / RFU FAM211A (11726209_a_at) / Fold change /veh FAM211A (11726209_a_at) / RFU RGS16 (11746705_a_at) / Fold change /veh RGS16 (11746705_a_at) / RFU VCAN (11755009_s_at) / Fold change /veh VCAN (11755009_s_at) / RFU RHOB (11743442_s_at) / Fold change /veh RHOB (11743442_s_at) / RFU RGS16 (11720943_a_at) / Fold change /veh RGS16 (11720943_a_at) / RFU RGS16 (11720944_at) / Fold change /veh RGS16 (11720944_at) / RFU, VPS4B / Fold change vs veh, VPS4B / RFU, CREB1 / Fold change vs veh, CREB1 / RFU, DNAJC13 / Fold change vs veh, DNAJC13 / RFU, GNAQ / Fold change vs veh, GNAQ / RFU, CDK5R1 / Fold change vs veh, CDK5R1 / RFU, ZRANB3 / Fold change vs veh, ZRANB3 / RFU, CUL4A / Fold change vs veh, CUL4A / RFU, CCNY / Fold change vs veh, CCNY / RFU, UFL1 / Fold change vs veh, UFL1 / RFU, COG3 / Fold change vs veh, COG3 / RFU, DIAPH2 / Fold change vs veh, DIAPH2 / RFU, SKA2 / Fold change vs veh, SKA2 / RFU, AFF3 / Fold change vs veh, AFF3 / RFU, LMF1 / Fold change vs veh, LMF1 / RFU, IPO11 / Fold change vs veh, IPO11 / RFU, DFFB / Fold change vs veh, DFFB / RFU, FOXP1 / Fold change vs veh, FOXP1 / RFU, CARD8 / Fold change vs veh, CARD8 / RFU, STRN3 / Fold change vs veh, STRN3 / RFU, ADK / Fold change vs veh, ADK / RFU, RASSF2 / Fold change vs veh, RASSF2 / RFU, WIPF1 / Fold change vs veh, WIPF1 / RFU, LARP1B / Fold change vs veh, LARP1B / RFU, RASA1 / Fold change vs veh, RASA1 / RFU, RB1 / Fold change vs veh, RB1 / RFU, PPFIA1 / Fold change vs veh, PPFIA1 / RFU, MAT2A / Fold change vs veh, MAT2A / RFU, CCT5 / Fold change vs veh, CCT5 / RFU, WDR92 / Fold change vs veh, WDR92 / RFU, CUX1 / Fold change vs veh, CUX1 / RFU, TTC7A / Fold change vs veh, TTC7A / RFU, TMEM135 / Fold change vs veh, TMEM135 / RFU, DEPTOR / Fold change vs veh, DEPTOR / RFU, CPM / Fold change vs veh, CPM / RFU, DNAJB6 / Fold change vs veh, DNAJB6 / RFU, CACNA2D3 / Fold change vs veh, CACNA2D3 / RFU, DTX4 / Fold change vs veh, DTX4 / RFU, TFCP2 / Fold change vs veh, TFCP2 / RFU, GMCL1 /// GMCL1P1 / Fold change vs veh, GMCL1 /// GMCL1P1 / RFU, AEBP2 / Fold change vs veh, AEBP2 / RFU, SNHG1 /// SNORD22 /// SNORD25 /// SNORD26 /// SNORD27 /// SNORD28 /// SNORD29 /// SNORD31 / Fold change vs veh, SNHG1 /// SNORD22 /// SNORD25 /// SNORD26 /// SNORD27 /// SNORD28 /// SNORD29 /// SNORD31 / Fold change (Aza/veh), C12orf56 (ProbeSet 11735607_a_at) / Fold change (ACY-1035/veh), C12orf56 (ProbeSet 11735607_a_at) / Fold change (Aza/veh), FGFR1OP (ProbeSet 11751329_s_at) / Fold change (ACY-1035/veh), FGFR1OP (ProbeSet 11751329_s_at) / Fold change (Aza/veh), VPS36 (ProbeSet 11739960_a_at) / Fold change (ACY-1035/veh), VPS36 (ProbeSet 11739960_a_at) / RFU SYPL1 (11715823_x_at) / Fold change /veh SYPL1 (11715823_x_at) / RFU IGFBP7 (11715501_s_at) / Fold change /veh IGFBP7 (11715501_s_at) / RFU REEP3 (11722064_at) / Fold change /veh REEP3 (11722064_at) / RFU IGLL1 (11728026_x_at) / Fold change /veh IGLL1 (11728026_x_at): dose or concentration left out as unconfirmed
Conditions: ProbeSet 11741070_a_at; LIST B

## Nc1ncn([C@@H]2O[C@H](CO)[C@@H](O)[C@H]2O)c(=O)n1 [azacitidine]
  Fold change vs veh, ZNF146: 0.88
